Assay results as given in patent publication EP1285920A1, “C10 Ester sustituted taxanes as antitumor agents” (Florida State University Research Foundation, Inc., priority 2001, dated 2003).
Like-named read-outs stand apart in the source and are kept apart here.

How the values were obtained:
A375 melanoma = system: A375 melanoma
Protocol: Dosing was initiated on Day 1. […] Taxotere was given i.v. on a qd x 1 schedule at a dose of 70 mg/kg. […] The study was terminated on Day 60. Treatment groups are detailed in Table 9.

MX-1 carcinoma = system: MX-1 carcinoma
In short: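 Mice dosed with a single i.v. bolus (qd x 1) at each compound's MTD, formulated in 5% ethanol, 5% Cremophor, 90% isotonic saline. Study ended Day 60; complete response = tumor not palpable at study end.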

VM46 colon carcinoma = system: VM46 colon carcinoma
Protocol: Dosing was initiated on Day 1. […] Taxotere was given i.v. at a dose of 70 mg/kg on a qd x 1 schedule.

[1] = system: Panc-1 pancreatic carcinoma; test: In vivo evaluation against Panc-1 human pancreatic carcinoma (Example 17)
Protocol: The dosing volume was 0.3 ml per 20 g mouse.
Female NCr-nude mice were implanted subcutaneously with 1 mm^3 Panc-1 pancreatic carcinoma fragments in the flank and sorted into treatment groups of six mice each. […] Dosing was initiated on Day 1. The antitumor compounds were given i.v. at an estimated maximum tolerated dose (MTD) appropriate for each agent on a qd x 1 schedule (single administration of compound). […] The vehicle was administered i.v. to control mice in Group 1 on the qd x 1 schedule. The study was terminated on Day 60.
The mean days of survival is the number of days after which a neoplasm reached a size of 1.5 g and the animal was euthanized. A complete response is obtained if the tumor shrinks to a size smaller than its size on Day 1 of the study.

HCT116 carcinoma = details: i.v. qd x 1 at MTD, Day 60
In short: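 Mice bearing HCT116 tumours received a single i.v. maximum tolerated dose per compound, formulated in 5% ethanol, 5% Cremophor, 90% isotonic saline. Study ended on Day 60; complete response meant no palpable tumour at study end.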

SK-MES carcinoma = test: In vivo evaluation against SK-MES human lung carcinoma xenograft (i.v., Example 11)
Protocol: Antitumor compounds were formulated for an i.v. dosing regime prepared in the following vehicle: 10% ethanol, 10% Cremophor and 80% isotonic saline.
Vehicle control animals were dosed twice intravenously with half the total volume being given separated by one hour. The study was terminated on Day 60.
A complete response is obtained if the tumor is not palpable at the end of the study.
A tumor scoring system was designed to provide a more quantitative ranking of efficacy (therapeutic potential) among the antitumor agents evaluated against the different human solid tumor xenografts. Each mouse in a study was given a score of from 1 to 10 at the end of the study. The scores can be summarized as follows:
The individual score for each mouse was averaged into a mean score for each treatment group. […]

HCT116 = test: In Vitro cytotoxicity measured by the cell colony formation assay; type: cell-based, human; details: Homo sapiens, HCT-116; read-out: IN VITRO ID 50 HCT116
In short: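 Four hundred cells per dish in McCoy's 5a medium with 10% FBS were allowed to attach for 5 h at 37 °C. They were then exposed to compound for 72 h at 37 °C, added as a 10× stock made fresh in medium. After HBSS rinsing and refeeding, colonies were counted after 7 days.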

DU145 prostate carcinoma = system: DU145 prostate carcinoma
Source text: Dosing was initiated on Day 1. […] Treatment groups are detailed in Table 5.

[2] = number of mice, i.v. qd x 1 at estimated MTD (Taxol 24 mg/kg, Taxotere 70 mg/kg), 6 mice/group (Taxotere 7), Day 60
[3] = VM46, i.v. qd x 1, six mice per group
[4] = number of mice, i.v. qd x 1, mg/kg: Taxol 24, 0499 77, 0503 72.6, 0670 123.1, 0706 107.6, 0838 72.6, 0854 46.6, 0983 67.4, Taxotere 70, 6 mice/group, Day 64
[5] = number of mice, i.v. qd x 1, mg/kg: Taxol 36, 0499 77, 0503 72.6, 0670 123.1, 0706 107.6, 0838 72.6, 0854 76.9, 6 mice/group, Day 60
[6] = number of 5 mice, i.v. qd x 1 at estimated MTD (Taxol 24 mg/kg split), Day 91

## CCC(=O)O[C@H]1C(=O)[C@@]2(C)[C@H]([C@H](OC(=O)c3ccccc3)[C@]3(O)C[C@H](OC(=O)[C@H](O)[C@@H](NC(=O)OC(C)(C)C)c4ccccn4)C(C)=C1C3(C)C)[C@]1(OC(C)=O)CO[C@@H]1C[C@@H]2O [Compound 0503]
A375 melanoma; A375, i.v. qd x 1
  survival extension compared to Group 1 controls: 95%
A375 melanoma; A375, i.v. qd x 1, six mice per group
  Complete Response: 1
A375 melanoma; mean days of survival until neoplasm reached 2.0 g, i.v. qd x 1 at estimated MTD (Taxol 24 mg/kg, Taxotere 70 mg/kg), 6 mice/group (Taxotere 7), terminated Day 60
  MDS (n): 28.1 ± 5.8 (3) days
A375 melanoma; number of mice, i.v. qd x 1 at estimated MTD (Taxol 24 mg/kg, Taxotere 70 mg/kg), 6 mice/group (Taxotere 7)
  Toxic Deaths: 2
A375 melanoma; [2]
  Complete Response: 1
  Partial Response: 0
  Stable Disease: 0
  Survivors: 1
A375 melanoma; tumor scoring system, i.v. qd x 1 at estimated MTD (Taxol 24 mg/kg, Taxotere 70 mg/kg), 6 mice/group (Taxotere 7)
  Mean Score: 2.8 ± 1.5
MX-1 carcinoma; MX-1, single i.v. MTD
  treated animals with durable complete responses and partial responses: 100%
MX-1 carcinoma; i.v. qd x 1 at MTD, 6 mice/group, Day 60, doses as in E17
  Mean Score: 9.7 ± 0.2
MX-1 carcinoma; number of 6 mice, tumor did not reach 2.0 g by end of study, i.v. qd x 1 at MTD, Day 60, doses as in E17
  Stable Disease: 0
MX-1 carcinoma; number of 6 mice, tumor not palpable at end of study, i.v. qd x 1 at MTD, Day 60, doses as in E17
  Complete Response: 4
MX-1 carcinoma; number of 6 mice, tumor smaller than on Day 1, i.v. qd x 1 at MTD, Day 60, doses as in E17
  Partial Response: 2
MX-1 carcinoma; number of 6 mice, i.v. qd x 1 at MTD, Day 60, doses as in E17
  Survivors: 6
MX-1 carcinoma; number of 6 mice, i.v. qd x 1 at MTD, Day 60, mg/kg: Taxol 36 (split dose), 0503 72.6, 0536 49, 0663 159, 0670 123, 0687 159, 0706 108, 0908 159, 0947 76.9, 0951 72.6, 0983 67.4, 0999 49, 1003 49, 1011 108
  Toxic Deaths: 0
VM46 colon carcinoma; VM46, i.v. qd x 1
  tolerability: well-tolerated
VM46 colon carcinoma; VM46, i.v. qd x 1 (compounds estimated MTD; Taxol 24 mg/kg split), six mice per group, ended Day 64
  partial responses: four
VM46 colon carcinoma; [3]
  Stable Disease: two
  Toxic Deaths: no toxic deaths
VM46 colon carcinoma; VM46, i.v. qd x 1 at estimated MTD
  response rate: 66.7%
VM46 colon carcinoma; number of mice, i.v. qd x 1, mg/kg: Taxol 24, 0499 77, 0503 72.6, 0670 123.1, 0706 107.6, 0838 72.6, 0854 46.6, 0983 67.4, Taxotere 70, 6 mice/group
  Toxic Deaths: 0
VM46 colon carcinoma; [4]
  Complete Response: 0
  Partial Response: 4
  Stable Disease: 1
  Survivors: 5
VM46 colon carcinoma; tumor scoring system, i.v. qd x 1, mg/kg: Taxol 24, 0499 77, 0503 72.6, 0670 123.1, 0706 107.6, 0838 72.6, 0854 46.6, 0983 67.4, Taxotere 70, 6 mice/group
  Mean Score: 7.3 ± 1.2
[1]; Panc-1 (Example 17), i.v. qd x 1 (compounds estimated MTD; Taxol 36 mg/kg split), days until tumor 1.5 g, ended Day 60
  MDS: 47 to 56 days
[1]; Panc-1 (Example 17), i.v. qd x 1, six mice per group
  Stable Disease: three
[1]; mean days of survival until neoplasm reached 1.5 g, i.v. qd x 1, mg/kg: Taxol 36, 0499 77, 0503 72.6, 0670 123.1, 0706 107.6, 0838 72.6, 0854 76.9, 6 mice/group, terminated Day 60
  MDS (n): 52.5 ± 2.1 (3) days
[1]; number of mice, i.v. qd x 1, mg/kg: Taxol 36, 0499 77, 0503 72.6, 0670 123.1, 0706 107.6, 0838 72.6, 0854 76.9, 6 mice/group
  Toxic Deaths: 0
[1]; [5]
  Complete Response: 0
  Partial Response: 0
  Stable Disease: 3
  Survivors: 3
[1]; tumor scoring system, i.v. qd x 1, mg/kg: Taxol 36, 0499 77, 0503 72.6, 0670 123.1, 0706 107.6, 0838 72.6, 0854 76.9, 6 mice/group
  Mean Score: 3.6 ± 0.4
HCT116 carcinoma; 5 mice/group, doses as in E3
  Mean Score: 9.2 ± 0.2
HCT116 carcinoma; number of 5 mice, tumor did not reach 2.0 g by end of study, doses as in E3
  Stable Disease: 0
HCT116 carcinoma; number of 5 mice, tumor not palpable at end of study, doses as in E3
  Complete Response: 1
HCT116 carcinoma; number of 5 mice, tumor smaller than on Day 1, doses as in E3
  Partial Response: 4
HCT116 carcinoma; number of 5 mice, doses as in E3
  Survivors: 5
HCT116 carcinoma; number of 5 mice, mg/kg: Taxol 36 (split doses), 0503 72.6, 0536 49, 0663 159, 0670 123, 0687 159, 0706 108, 0908 159, 0947 76.9, 0951 72.6, 0983 72.6, 0999 49, 1003 49, 1011 108
  Toxic Deaths: 0
SK-MES carcinoma; SK-MES, 0503 72.1 mg/kg i.v.
  antitumor activity: highly active
SK-MES carcinoma; SK-MES, i.v. MTD in two half doses one hour apart, qd x 1, Taxol 36 mg/kg, 0503 72.1 mg/kg, days until tumor 1.5 g, ended Day 60
  MDS (n): 46.0 ± 0(2) days
SK-MES carcinoma; SK-MES, i.v. split dose qd x 1, six mice per group
  Toxic Deaths: 0
SK-MES carcinoma; SK-MES, i.v. split dose qd x 1, six mice per group, Day 60
  Survivors: 4
SK-MES carcinoma; SK-MES, i.v. split dose qd x 1, tumor below 1.5 g at termination
  Stable Disease: 1
SK-MES carcinoma; SK-MES, i.v. split dose qd x 1, tumor smaller than on Day 1
  Partial Response: 0
SK-MES carcinoma; SK-MES, tumor score 1 to 10 per mouse, group mean
  Mean Score: 6.5 ± 1.6
SK-MES carcinoma; mouse, in vivo, iv, 72.1 mg/kg
  tolerability: well tolerated
HCT116
  IC50: < 1 nM
DU145 prostate carcinoma; DU145, i.v. qd x 1 at estimated MTD, five mice per group
  total response rate: at least 50%
DU145 prostate carcinoma; i.v. qd x 1 at estimated MTD (Taxol 24 mg/kg split), 5 mice/group, Day 91
  Mean Score: 6.2 ± 1.9
DU145 prostate carcinoma; number of 5 mice, tumor did not reach 1.5 g by end of study, i.v. qd x 1 at estimated MTD (Taxol 24 mg/kg split), Day 91
  Stable Disease: 2
DU145 prostate carcinoma; number of 5 mice, i.v. qd x 1 at estimated MTD (Taxol 24 mg/kg as two split doses), Day 91
  Toxic Deaths: 1
DU145 prostate carcinoma; [6]
  Complete Response: 2
  Partial Response: 0
  Survivors: 4
